Results reported in ChEMBL document CHEMBL4014283, “Structural insights of SmKDAC8 inhibitors: Targeting Schistosoma epigenetics through a combined structure-based 3D QSAR, in vitro and synthesis strategy” (Bioorg Med Chem, 2017).
The source made the active and inactive calls. The rule behind the calls is not given here.

Tests used:
[1] = target: T1, Histone deacetylase 8 (Schistosoma mansoni) (UniProt A5H660); assay: Inhibition of Schistosoma mansoni KDAC8 at 30 uM using (FAM)-labeled peptide as substrate after 60 mins by microfluidic assay
T1 sequence (whole entry): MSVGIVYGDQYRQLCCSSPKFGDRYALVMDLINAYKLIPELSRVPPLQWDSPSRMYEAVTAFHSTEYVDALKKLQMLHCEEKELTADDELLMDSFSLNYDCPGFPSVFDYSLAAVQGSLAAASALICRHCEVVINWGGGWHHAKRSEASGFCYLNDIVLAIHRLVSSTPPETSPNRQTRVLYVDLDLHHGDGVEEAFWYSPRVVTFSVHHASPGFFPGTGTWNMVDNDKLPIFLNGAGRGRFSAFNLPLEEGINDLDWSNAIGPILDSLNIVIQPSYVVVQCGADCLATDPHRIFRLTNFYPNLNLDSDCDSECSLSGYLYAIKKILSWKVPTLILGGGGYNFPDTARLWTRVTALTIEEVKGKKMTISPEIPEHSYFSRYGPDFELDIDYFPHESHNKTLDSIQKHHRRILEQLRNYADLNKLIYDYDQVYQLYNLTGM

Histone deacetylase 8 = target: T2, Histone deacetylase 8 (Schistosoma mansoni, UniProt A5H660); assay: Inhibition of Schistosoma mansoni KDAC8 using (FAM)-labeled peptide as substrate after 60 mins by microfluidic assay
T2 sequence (A5H660 whole entry): T1 sequence (whole entry)

Row | SMILES | inhibition [1] | IC50 (Histone deacetylase 8; read-out: IC50) | IC50 (Histone deacetylase 8; read-out: pIC50 (converted))
1 | O=C(O)CCCCN1C(=O)[C@H](Cc2ccccc2)N=C(c2ccccc2)c2ccccc21 | 0% | > 30 µM | –
2 | CC(C)(C)OC[C@@H]1N=C(c2ccccc2)c2ccccc2N(CCCCC(=O)NO)C1=O | 15.7% | > 30 µM | –
3 | O=C(CCCCN1C(=O)[C@H](Cc2cnc[nH]2)N=C(c2ccccc2)c2ccccc21)NO | 4.11% | > 30 µM | –
4 | O=C(CC[C@@H]1N=C(c2ccccc2)c2ccccc2NC1=O)NC(c1ccccc1)(c1ccccc1)c1ccccc1 | 10.4% | > 30 µM | –
5 | CC(C)(C)OC(=O)n1c(C[C@@H]2N=C(c3ccccc3)c3ccccc3N(CCCCC(=O)NO)C2=O)cc2ccccc21 | 12.5% | > 30 µM | –
6 | CC(C)(C)OC(=O)CC[C@@H]1N=C(c2ccccc2)c2ccccc2NC1=O | 0% | > 30 µM | –
7 | COC(=O)CCCCN1C(=O)CN=C(c2ccccc2)c2ccccc21 | 0% | > 30 µM | –
8 | O=C(CCCCN1C(=O)[C@H](CCC(=O)NC(c2ccccc2)(c2ccccc2)c2ccccc2)N=C(c2ccccc2)c2ccccc21)NO | 32.1% | > 30 µM | –
9 | O=C(O)CCCCN1C(=O)[C@H](CC(=O)O)N=C(c2ccccc2)c2ccccc21 | 0% | > 30 µM | –
10 | O=C(C[C@@H]1N=C(c2ccccc2)c2ccccc2NC1=O)NC(c1ccccc1)(c1ccccc1)c1ccccc1 | 0% | > 30 µM | –
11 | CN(C)Nc1cccc(C(=O)NO)c1 | – | – | 1.58 µM
12 | C[C@@H]1N=C(c2ccccc2)c2ccccc2NC1=O | 0% | > 30 µM | –
13 | COC(=O)CCCCN1C(=O)[C@H](COC(C)(C)C)N=C(c2ccccc2)c2ccccc21 | 0% | > 30 µM | –
14 | Cc1ccc(CN(Cc2ccc(C(=O)NO)cc2)S(=O)(=O)c2ccc(F)c(C)c2)cc1 | – | – | 5.62 µM
15 | O=C(CCCCN1C(=O)[C@H](CC(=O)NO)N=C(c2ccccc2)c2ccccc21)NO | 5.21% | > 30 µM | –
16 | CC(C)(C)OC(=O)C[C@@H]1N=C(c2ccccc2)c2ccccc2N(CCCCC(=O)O)C1=O | 0% | > 30 µM | –
17 | Cc1c(C)c(S(=O)(=O)NC(=N)NCCC[C@@H]2N=C(c3ccccc3)c3ccccc3N(CCCCC(=O)O)C2=O)c(C)c2c1OC(C)(C)C2 | 0% | > 30 µM | –
18 | CC[C@H](C)[C@@H]1N=C(c2ccccc2)c2ccccc2N(CCCCC(=O)OC)C1=O | 0% | > 30 µM | –
19 | NC(=O)C[C@@H]1N=C(c2ccccc2)c2ccccc2N(CCCCC(=O)NO)C1=O | 0% | > 30 µM | –

Row | SMILES | inhibition [1] | IC50 (Histone deacetylase 8; read-out: IC50) | IC50 (Histone deacetylase 8; read-out: pIC50 (converted))
20 | O=C(O)C[C@@H]1N=C(c2ccccc2)c2ccccc2NC1=O | 0% | > 30 µM | –
21 | Cc1c(C)c(S(=O)(=O)NC(=N)NCCC[C@@H]2N=C(c3ccccc3)c3ccccc3NC2=O)c(C)c2c1OC(C)(C)C2 | 0% | > 30 µM | –
22 | O=C(CCCCN1C(=O)[C@H](Cc2ccc(O)cc2)N=C(c2ccccc2)c2ccccc21)NO | 0% | > 30 µM | –
23 | O=C(CCCCCCC(=O)Nc1cccc(C(=O)O)c1)NO | – | – | 1.91 µM
24 | CCCCCC(=O)NO | – | – | 2.51 µM
25 | O=C(CS)NCCCCCC(=O)Nc1ccccc1 | – | – | 50.1 µM
26 | O=C(CCCCN1C(=O)[C@H](Cc2cncn2C(c2ccccc2)(c2ccccc2)c2ccccc2)N=C(c2ccccc2)c2ccccc21)NO | 3.81% | > 30 µM | –
27 | O=C(O)CCCCN1C(=O)CN=C(c2ccccc2)c2ccccc21 | 0% | > 30 µM | –
28 | O=C(CCCCCN1C(=O)c2cccc3cccc(c23)C1=O)NO | – | 1.77 µM | –
29 | COC(=O)CCCCN1C(=O)[C@H](Cc2ccccc2)N=C(c2ccccc2)c2ccccc21 | 0% | > 30 µM | –
30 | CC(=O)SCC/C=C/[C@@H]1CC(=O)NCc2ccc(cc2)C2=N[C@@](C)(CS2)C(=O)N[C@@H](C(C)C)C(=O)O1 | inactive | > 30 µM | –
31 | C[C@H](OCc1ccccc1)[C@@H]1N=C(c2ccccc2)c2ccccc2N(CCCCC(=O)O)C1=O | 0% | > 30 µM | –
32 | CC(C)(C)OC(=O)CC[C@@H]1N=C(c2ccccc2)c2ccccc2N(CCCCC(=O)NO)C1=O | 24.9% | > 30 µM | –
33 | O=C(O)CC[C@H]1N=C(c2ccccc2)c2ccccc2NC1=O | 0% | > 30 µM | –
34 | CC[C@H](C)[C@@H]1N=C(c2ccccc2)c2ccccc2NC1=O | 0% | > 30 µM | –
35 | COC(=O)[C@H](Cc1ccccc1)NC(=O)CCCCCCCCC(=O)NO | – | – | 0.794 µM
36 | CC(C)(C)OC(=O)NCCCC[C@@H]1N=C(c2ccccc2)c2ccccc2NC1=O | 0% | > 30 µM | –
37 | Cc1c(C)c(S(=O)(=O)NC(=N)NCCC[C@@H]2N=C(c3ccccc3)c3ccccc3N(CCCCC(=O)NO)C2=O)c(C)c2c1OC(C)(C)C2 | 0% | > 30 µM | –
